# Assays:
# RSK = test: Western blotting of RSK phosphorylation; assay type: cell-based; conditions: four distinct cell lines
# Experimental: (A) EPE peptide prevents ERK1/2-importin7 interaction. HeLa cells were serum starved (0.1%, 16 hours), pretreated with EPE peptide, scrambled peptide (10 μM, 2 hours) or DMSO, and then stimulated with TPA (250 nM, 15 min). ERK1 were precipitated with αgERK1 Ab; importin7 co-immunoprecipitated with ERK1 was detected by WB with αimportin7 Ab. […] T47D, HeLa, MDA-MB-231 and A2352 cells were serum starved (0.1%, 16 hours), pretreated with EPE peptide, scrambled peptide (10 μM, 2 hours) or DMSO control, and then stimulated with TPA (250 nM, indicated times). Cell extracts were subjected to Western blot analysis with the indicated Abs. (C) EPE peptide inhibits phosphorylation of c-Myc and Elk1 in B-Raf melanomas. A2158 and A2352 cells were treated with scrambled and EPE peptide for two hours and then stimulated with the indicated concentration of TPA for 30 min. […] (D) Quantification of some of the results in B and C. […]
# (i) Preparation of cellular extracts for Western Blotting: Cells were rinsed twice with ice-cold PBS and scraped into Radio-immunoprecipitation assay buffer (RIPA; 137 mM NaCl, 20 mM Tris (pH 7.4), 10% glycerol, 1% Triton X-100, 0.5% deoxycholate, 0.1% SDS, 2 mM EDTA, 1 mM PMSF, and 20 μM leupeptin). The extracts were centrifuged (20,000×g, 15 min, 4° C.), and the supernatants were further analyzed by Western blotting. […]
# [1] = tested on: PLX-4032 and U0126 resistant A2352 melanoma cells; test: Proliferation of inhibitor-resistant melanoma cells; assay type: cell-based; conditions: 10 μM, 72 h
# Experimental: (A) A2352 melanoma cells resistant to either PLX4032 (B-Raf) or U0126 (MEK) inhibitors were treated with DMSO, EPE or Scr peptide (10 μM), U0126 (10 μM), PLX4032 (1 μM), Wortmannin (0.5 μM) or Taxol (25 μg/ml). Presented as percent of viable cells at 72 h/initial cell number. […] Methylene blue assay was performed to quantify viable cells. Experiments were done twice in triplicate. Data presented as fold change.
# All cells, except of MCF-10A, were seeded into 12-well cell plates in 1% FBS medium. MCF-10A cells were seeded in their complete medium diluted 5 fold. DMSO, Scr peptide, EPE peptide, or U0126 (final concentration of 10 μM each) were added to the appropriated wells four hours later. Every day medium was changed to fresh one containing the same agents. The number of viable cells was measured by Methylene Blue assay at 72 h after cell seeding. Shortly, cells were fixed with 4% Formaldehyde for 2 h at 23° C., washed once with 0.1M Borate Buffer pH 8.5 and stained with of 1% Methylene Blue in 0.1M Borate Buffer for 10 min. Color was extracted by adding 0.1 M HCl for 3 h at 23° C., and examined at 595 nm.
# A2352 cells were supplemented with either PLX4032 (B-Raf inhibitor, 1 μM), or U0126 (MEK inhibitor, 10 μM) for 45 days. […]
# B-Raf melanoma cells = test: Morphology assay (light microscopy); assay type: cell-based; conditions: 10 μM
# Experimental: (§1) FIGS. 5A-5D illustrate that the EPE peptide leads to apoptosis of B-Raf mutant cancer cells. (A) The EPE peptide affects the morphology of treated cells. The indicated cells were treated with either the EPE or Scr peptides, DMSO, or taxol for 72 h, and photographed by a light microscope. (B) The EPE peptide induces apoptosis in melanoma cells detected by TUNEL. The indicated cell lines were treated as in A for 24 h. Apoptosis was detected by TUNEL staining. Images were obtained by florescence microscope. (C) Quantification of B. The bar-graph represents percent of apoptotic cells calculated in 10 different fields. (D) The EPE peptide induces apoptosis of melanoma cells detected by PARP cleavage. The indicated cell lines were treated as in (A) for 24 h. Cell extracts were subjected to Western blotting with αPARP Ab.
# (§2) Cells were seeded on glass cover slips in a 12-wells plate at 25% confluence with medium containing 1% of FCS. Peptides (EPE or Scr), DMSO, or U0126 in a final concentration of 10 μM, were added after 4 h (considered as time “0”). TUNEL staining was performed at 24 h after the treatment according to manufacturer instruction (Roche Applied Science, Nutley, N.J., USA). Briefly, the medium was removed and cells were fixed with 3% of paraformaldehyde (1.5 h, 23° C.). Cells were rinsed twice with PBS and permeabilized with 0.1% Triton X-100 and 0.1% sodium citrate for 2 min on ice. Cells were rinsed twice with PBS and 28 μl of TUNEL reaction mixture (25 μl of TUNEL label, 2.5 μl of TUNEL enzyme and 0.1 mg/ml of DAPI) was added directly on top of the slide, cells were incubated for 16 h in humid box at 37° C. Cover slips were rinsed three times with PBS and mounted on microscope slides. The slides were dried and then subjected to image acquisition by a florescence microscope. For morphology assay, the cells were seeded at approximately 25% confluence in 6 cm plates with medium containing 1% FCS. Peptides (EPE and Scr) or DMSO or U0126 in a final concentration of 10 μM, were added after 4 h (considered to be time 0), 24 h and 48 h. […]
# most cell lines examined = test: Morphology assay (light microscopy); assay type: cell-based; conditions: 10 μM
# Experimental: as §1, §2
# [2] = Systemic toxicity in xenograft-bearing mice (body weight, organ histology); conditions: treated animals, end of experiment
# Experimental: Female SCID mice (Harlan), 5-6 weeks of age, were inoculated s.c. into the flank region with 10^7 A2352 cells in 150 μl mixture of PBS with matrigel (2:1). Tumors were allowed to develop to the size of 5-6.5 mm in diameter (50˜110 mm^3 volume) and then the animals were randomly allocated to different treatment groups. The peptides (100 mM stock in DMSO), were diluted to the necessary concentration in PBS and boiled for 5 minutes. Then, DMSO, Scr or EPE peptides were administered by i.v. injection into the tail vein (150 μl/mouse, 3 times a week). Tumor dimensions were measured with a digital sliding caliper. Tumor volume was calculated using the formula: V=D1×D2×D3×π/6, where D1, D2, D3—represent the three mutually orthogonal growth diameters. To assess any signs of systemic toxicity, body weight was monitored, and recorded at the end of the experiment.
# Tumor xenografts, lungs, livers, kidneys and hearts of animals from different treatment groups were removed and subjected for histological analysis by staining of 5 μm paraffin embedded tissue slides with H&E, and examination by light microscope. […] Briefly, paraffin embedded blocks of tumors after different treatments were cut at 4 μm thickness and stained with ERK Abs, followed by second antibodies conjugated to peroxidase and DAB staining. Representative fields of each specimen were photographed at ×20 and ×40 magnifications.
sequence,measurement,setting,value
GQLNHILGILGEPEQED (Synthetic peptide (EPE)) [EPE peptide],downstream activity of RSK,RSK,no effect
same,cell growth,[1],able to reduce cell growth
same,cell morphology,B-Raf melanoma cells,inducing cell-break already 24 hours after treatment
same,cell morphology,most cell lines examined,no effect
same,"change in weight, organ morphology or other toxicity-related effects",[2],None of the animal treated exhibited any significant change

# — patent US10240133B2, “ERK-derived peptides and uses thereof” (Yeda Research and Development Co. Ltd., priority 2013, dated 2019)
